Columns and labels:
Assay in all cases: PhosphoSens CSox based kinase assay
Assay type in all cases: biochemical
Conditions in all cases: 5 μM HU-MCA-13
IKKβ = target: T1, IKKβ (Homo sapiens, UniProt O14920)
T1 construct: purchased Invitrogen PV3836
Text: (§1) The initial focus was to measure the modulatory activity in vitro of MCA-13 on protein kinases which were reported to be involved in induction of neurite outgrowth.[18],[43] To do this, we took advantage of a powerful method to measure the activity of recombinant protein kinases using a homogeneous and continuous (kinetic) format, where the level of chelation-enhanced fluorescence (CHEF) is directly proportional to the amount of phosphorylated, real-time sensors consisting of sulfonamido-oxine (Sox) chromophore linked to a peptide or protein substrates of selective kinases.[44] This assay is ideal for elucidating drug mechanism of action and is increasingly being applied earlier in the drug development workflow to address off target effects and/or the challenges and opportunities for next generation protein kinase inhibitors.[45] Since neurotrophins induce neurite outgrowth by activating the different tropomyosin kinase receptors (Trk), and small molecules agonists of Trk receptors can selectively activate Trks,[46] we first investigated the ability of HU-MCA-13 to modulate TRKA, TRKB and TRKC phosphorylation activities (Supporting Information, Figure S3-2). […] The TRKs constructs used in the assay contained only the intracellular kinase domain (amino acids 442–786) and therefore presently we cannot exclude that HU-MCA-13 may interact with the TRKs extracellular domain thereby inducing the conformational change required for the kinase domain activation. […] Moreover, no effects of HU-MCA-13were found on other kinases (ASK1, ERK2, JNK3, p38α, CDK5, KDR-VEGFR, AKT1, GSK3β, PDGFRβ, PKACα, PKC, CK1, IKKβ) which stimulate neurite outgrowth. Also, no effects were observed of HU-MCA-13 on kinases (EGFR, IGF1R, FGFR 1 and 2, CAMK2α,) which inhibit neurite outgrowth or calcineurin phosphatase which dephosphorylates the neurite outgrowth stimulatory protein, cofilin.[47]
(§2) MCA-13 safety b y in vitro eval uati on usi ng Phos pho Sens®C Soxb ased kinase […]
(§3) Method: Kinase Activity Measurements
(§4) Kinase activity was measured continuously using the PhosphoSens®technology (AssayQuant Technologies Inc., Marlborough, MA) according to the manufacturers’ recommendations (http://www.assayquant.com/) . This one-step homogeneous assay use s chelation-enh anced fluorescence via optimized substrate sensors unique for each kinase, containing the unnatural fluorogenic amino-acid Sox.
(§5) The following kinases which, upon stimulation or inhibition with small molecule modulators, induced neurite outgrowth, were obtained from different companies and were used in this study at the following concentrations: 2.
(§6) 25 µL final reaction volume including : 2.5 µl Sox-based substrate (10 x), 17.5 µl reaction mix with AT P, 5.0 µL Kinase [5x in EDB (Enzyme Dilution Buffer : 20 mM TRIS, pH 8.0, 0.01% Brij -35, 0.1 mM EGTA, 5% Glycerol, 1 mM DTT, 1 mg/mL Bovine Serum Albumin]. 5-45 min preincubation (all except EDB/kinase) at 30 °C of substrate in reaction mix and ATP ensuring that the progress kinetic curve for the background fluorescence w as flat. Reaction was run at 30 °C for […]
(§7) Final Reaction Conditions.
(§8) Protein kinase activity was determined in 54 mM HEPES, pH 7.5 1 mM ATP 1.2 mM DTT (none in ASK1) 0.012% Brij-35 1% glycerol 0.2 mg/ml BSA 0.52 mM EGTA (none in assays of CAMK2α, PKCε, PKCι, Calcineurin A/B) 140 µM phosphatidylserine/3.8 µM diacylglycerol (PKCε, PKCι only) 5 ng/µl calmodulin/0.4 mM CaCl2 (CAMK2α, Calcineurin A/B only) 10 mM […]
(§9) IKKβ, AKT1, GSK3β, PKCε, PKCι, PKACα, KDR, CK1δ, EGFR, ASK1, IGF1R, CAMK2α, DLK, FGFR2, FGFR1) in the presence or absence of 5 µ M H U-MCA-13 test compound. All components e xcept enzyme were equilibrated to 30 °C prior to setting up reactions run in Corning, 384-well, white flat round bottom polystyrene NBS microplates (Cat. #3824) after sealing using optically-clear adhesive film [TopSealA -Plus plate seal, PerkinElmer (Cat. #6050185)], applied with a roller to eliminate evaporation and resulting drift. Europium was added to a final […]

AKT1 = target: T2, AKT1 (Homo sapiens, UniProt P31749)
T2 construct: AKT1, amino acids 104-480, Carna (cat. & lot #: 01 -101,; purchased Carna 01-101
Text: as §1, §2, §3, §4, §5, §6, §7, §8, §9

JNK3 = target: T3, JNK3 (Homo sapiens, UniProt P53779)
T3 construct: JNK 3, amino acids 1 -426, Carna; purchased Carna 04-150
Text: as §1, §2, §3, §4, §5, §6, §7, §8, §9

ASK1 = target: T4, ASK1 (Homo sapiens, UniProt Q99683)
T4 construct: ASK1, amino acids 1-1374, Invitrogen; purchased Invitrogen PV3809
Text: as §1, §2, §3, §4, §5, §6, §7, §8, §9

KDR-VEGFR = target: T5, KDR-VEGFR (Homo sapiens, UniProt P35968)
T5 construct: KDR, amino acids 790 -1356, Carna (cat. & lot #: 08 -191,; purchased Carna 08-191
Text: as §1, §2, §3, §4, §5, §6, §7, §8, §9

PKACα = target: T6, PKACα (Homo sapiens, UniProt P17612)
T6 construct: PKACα, amino acids 1 -351, Carna (cat. & lot #: 01 -127/10CBS -0315N)/; purchased Carna 01-127
Text: as §1, §2, §3, §4, §5, §6, §7, §8, §9

FGFR 1 = target: T7, FGFR 1 (Homo sapiens, UniProt P11362)
T7 construct: 396-820, Carna (cat. & lot #: 08); purchased Carna 08-133
Text: as §1, §2, §3, §4, §5, §6, §7, §8, §9

p38α = target: T8, p38α (Homo sapiens, UniProt Q16539)
T8 construct: p38α, amino acids 9-352, Carna (cat. & lot #: 04-152,; purchased Carna 04-152
Text: as §1, §2, §3, §4, §5, §6, §7, §8, §9

Measured: effect on kinase activity

T8 sequence (Q16539 9-352): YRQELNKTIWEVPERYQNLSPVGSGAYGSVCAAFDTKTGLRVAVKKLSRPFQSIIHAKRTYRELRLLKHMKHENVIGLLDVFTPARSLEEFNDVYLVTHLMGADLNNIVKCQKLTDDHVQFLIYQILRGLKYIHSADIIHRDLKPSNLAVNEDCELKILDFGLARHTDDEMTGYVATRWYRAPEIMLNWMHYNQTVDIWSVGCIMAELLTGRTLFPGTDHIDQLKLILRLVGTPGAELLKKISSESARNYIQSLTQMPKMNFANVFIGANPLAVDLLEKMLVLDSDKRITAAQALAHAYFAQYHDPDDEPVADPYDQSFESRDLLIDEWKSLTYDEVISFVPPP
T5 sequence (P35968 790-1356): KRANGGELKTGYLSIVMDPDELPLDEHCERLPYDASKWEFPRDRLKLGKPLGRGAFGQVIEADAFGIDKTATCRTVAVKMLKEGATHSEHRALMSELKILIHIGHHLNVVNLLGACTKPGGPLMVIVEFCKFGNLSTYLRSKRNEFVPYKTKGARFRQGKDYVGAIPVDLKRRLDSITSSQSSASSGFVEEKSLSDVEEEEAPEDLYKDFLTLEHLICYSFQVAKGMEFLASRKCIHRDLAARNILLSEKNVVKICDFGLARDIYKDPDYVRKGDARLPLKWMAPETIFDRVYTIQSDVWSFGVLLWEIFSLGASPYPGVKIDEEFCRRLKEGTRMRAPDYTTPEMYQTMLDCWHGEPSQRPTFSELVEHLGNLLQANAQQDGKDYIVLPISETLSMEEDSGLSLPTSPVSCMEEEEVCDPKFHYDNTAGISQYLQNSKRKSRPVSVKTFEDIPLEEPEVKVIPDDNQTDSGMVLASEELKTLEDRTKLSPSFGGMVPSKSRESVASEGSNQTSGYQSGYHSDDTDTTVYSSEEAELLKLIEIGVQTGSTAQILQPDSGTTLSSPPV
T7 sequence (P11362 398-822): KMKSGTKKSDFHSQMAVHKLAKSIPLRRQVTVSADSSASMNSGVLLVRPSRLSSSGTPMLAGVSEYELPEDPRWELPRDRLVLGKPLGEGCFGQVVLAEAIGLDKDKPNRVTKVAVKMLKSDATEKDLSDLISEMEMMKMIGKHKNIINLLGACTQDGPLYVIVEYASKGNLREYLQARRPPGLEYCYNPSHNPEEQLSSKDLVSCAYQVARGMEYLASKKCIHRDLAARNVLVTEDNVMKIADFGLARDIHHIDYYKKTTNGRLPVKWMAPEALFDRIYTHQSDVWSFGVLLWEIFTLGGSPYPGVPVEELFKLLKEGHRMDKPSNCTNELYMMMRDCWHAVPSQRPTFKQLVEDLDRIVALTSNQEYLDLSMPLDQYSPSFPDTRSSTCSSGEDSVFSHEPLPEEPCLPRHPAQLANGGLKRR
T1 sequence (O14920 whole entry): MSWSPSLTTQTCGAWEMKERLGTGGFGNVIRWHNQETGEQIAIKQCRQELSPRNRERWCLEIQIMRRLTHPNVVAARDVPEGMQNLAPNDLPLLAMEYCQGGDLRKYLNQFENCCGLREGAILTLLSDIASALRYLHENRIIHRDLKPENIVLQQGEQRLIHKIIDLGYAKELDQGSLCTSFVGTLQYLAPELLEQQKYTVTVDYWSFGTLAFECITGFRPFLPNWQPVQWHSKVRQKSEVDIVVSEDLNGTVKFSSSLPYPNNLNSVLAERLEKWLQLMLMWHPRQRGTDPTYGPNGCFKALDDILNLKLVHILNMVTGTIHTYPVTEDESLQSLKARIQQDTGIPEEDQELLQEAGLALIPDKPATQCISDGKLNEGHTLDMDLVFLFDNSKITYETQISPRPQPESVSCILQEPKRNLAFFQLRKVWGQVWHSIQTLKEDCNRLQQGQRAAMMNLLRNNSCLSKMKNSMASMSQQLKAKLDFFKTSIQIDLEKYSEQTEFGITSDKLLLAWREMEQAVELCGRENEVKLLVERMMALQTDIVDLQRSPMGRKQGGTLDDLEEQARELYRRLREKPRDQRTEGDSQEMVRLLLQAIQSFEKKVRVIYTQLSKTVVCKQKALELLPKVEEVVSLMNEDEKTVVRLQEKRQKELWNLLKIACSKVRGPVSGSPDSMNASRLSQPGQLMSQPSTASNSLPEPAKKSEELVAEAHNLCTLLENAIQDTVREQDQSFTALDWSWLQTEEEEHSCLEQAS
T2 sequence (P31749 104-480): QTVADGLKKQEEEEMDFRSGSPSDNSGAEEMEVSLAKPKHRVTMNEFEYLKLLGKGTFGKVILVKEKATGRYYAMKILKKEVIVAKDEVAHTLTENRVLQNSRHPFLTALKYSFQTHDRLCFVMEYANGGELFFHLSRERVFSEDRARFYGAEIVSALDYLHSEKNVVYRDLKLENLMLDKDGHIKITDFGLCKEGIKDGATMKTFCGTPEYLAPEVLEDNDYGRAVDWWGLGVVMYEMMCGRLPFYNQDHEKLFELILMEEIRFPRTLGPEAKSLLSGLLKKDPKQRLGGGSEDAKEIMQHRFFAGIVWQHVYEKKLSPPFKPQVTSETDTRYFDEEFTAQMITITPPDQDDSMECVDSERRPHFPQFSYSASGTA
T3 sequence (P53779 39-464): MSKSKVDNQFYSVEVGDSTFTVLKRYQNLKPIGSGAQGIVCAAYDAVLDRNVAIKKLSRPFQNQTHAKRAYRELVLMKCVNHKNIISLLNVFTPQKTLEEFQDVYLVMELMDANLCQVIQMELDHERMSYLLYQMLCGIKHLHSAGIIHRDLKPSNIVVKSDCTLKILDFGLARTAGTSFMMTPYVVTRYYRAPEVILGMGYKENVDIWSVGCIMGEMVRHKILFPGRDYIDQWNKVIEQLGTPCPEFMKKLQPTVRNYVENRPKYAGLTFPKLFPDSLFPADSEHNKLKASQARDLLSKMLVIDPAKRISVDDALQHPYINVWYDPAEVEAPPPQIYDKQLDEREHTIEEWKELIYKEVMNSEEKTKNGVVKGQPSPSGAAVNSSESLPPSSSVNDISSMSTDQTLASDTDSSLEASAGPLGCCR
T4 sequence (Q99683 whole entry, the tested form may be a part): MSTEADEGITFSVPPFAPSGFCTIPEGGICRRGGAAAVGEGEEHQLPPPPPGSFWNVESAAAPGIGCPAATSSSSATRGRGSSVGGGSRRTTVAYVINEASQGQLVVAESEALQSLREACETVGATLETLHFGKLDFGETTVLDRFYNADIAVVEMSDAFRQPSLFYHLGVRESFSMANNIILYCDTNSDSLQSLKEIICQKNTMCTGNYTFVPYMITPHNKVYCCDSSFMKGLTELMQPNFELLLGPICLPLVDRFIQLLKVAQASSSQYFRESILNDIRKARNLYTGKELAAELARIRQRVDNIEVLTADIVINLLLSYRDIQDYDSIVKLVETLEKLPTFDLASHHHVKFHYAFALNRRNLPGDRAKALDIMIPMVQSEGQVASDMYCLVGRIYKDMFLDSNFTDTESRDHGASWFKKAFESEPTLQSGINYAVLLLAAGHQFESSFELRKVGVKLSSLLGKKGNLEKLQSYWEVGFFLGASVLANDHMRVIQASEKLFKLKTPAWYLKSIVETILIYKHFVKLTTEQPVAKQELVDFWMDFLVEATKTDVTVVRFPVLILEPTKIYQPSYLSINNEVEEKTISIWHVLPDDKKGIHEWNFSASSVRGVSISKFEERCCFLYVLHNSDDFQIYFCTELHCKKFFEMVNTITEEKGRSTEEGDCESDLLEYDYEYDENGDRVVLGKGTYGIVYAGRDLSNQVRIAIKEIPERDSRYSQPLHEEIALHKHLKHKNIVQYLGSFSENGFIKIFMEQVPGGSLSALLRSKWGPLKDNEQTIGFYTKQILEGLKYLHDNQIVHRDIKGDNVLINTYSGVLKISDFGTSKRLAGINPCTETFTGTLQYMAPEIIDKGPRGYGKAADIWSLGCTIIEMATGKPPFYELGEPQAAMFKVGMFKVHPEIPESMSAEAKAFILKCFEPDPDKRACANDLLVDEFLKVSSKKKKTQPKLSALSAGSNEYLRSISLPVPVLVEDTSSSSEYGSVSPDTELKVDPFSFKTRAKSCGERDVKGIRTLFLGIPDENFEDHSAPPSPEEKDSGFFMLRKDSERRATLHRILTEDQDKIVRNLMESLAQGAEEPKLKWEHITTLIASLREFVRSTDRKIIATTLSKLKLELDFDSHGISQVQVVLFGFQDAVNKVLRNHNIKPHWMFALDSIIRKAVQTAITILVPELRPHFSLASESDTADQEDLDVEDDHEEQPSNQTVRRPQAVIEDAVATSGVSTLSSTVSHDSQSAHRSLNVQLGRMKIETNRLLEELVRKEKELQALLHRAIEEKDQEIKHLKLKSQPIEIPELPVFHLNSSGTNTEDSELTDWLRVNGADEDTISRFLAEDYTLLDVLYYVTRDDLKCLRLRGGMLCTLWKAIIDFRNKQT

C=CCC1CCCC(CCC(=O)O)C1=C (centres unmarked) [HU-MCA-13, 3-(3-allyl-2-methylenecyclohexyl)propanoic acid]
no effects: all assays above

Source: paper PMC7497641, “Neurotropic activity and safety of methylene-cycloalkylacetate (MCA) derivative 3-(3-allyl-2-methylenecyclohexyl) propanoic acid” (ACS Chemical Neuroscience, 2020)
